We go through 21 molecules from ChEMBL document CHEMBL1158954, “Anti-AIDS agents, 3. Inhibitory effects of colchicine derivatives on HIV replication in H9 lymphocyte cells” (J Nat Prod, 1991).

A value given as a limit tells only on which side of the number the result lay.

Assay [1] relates to H9. Kind of assay: Cytotoxicity against human H9 cells. The format is ADME, cell-based.
In assay [2] the test system is H9 (Homo sapiens). Put plainly: microbe, parasite or virus in culture. The following applies: H9, 72 h.

Broadly, the EC50 is the concentration needed to bring the measured effect to its halfway point. The low end stands for greater potency, the high end for weaker potency. What is called IC50 is the concentration needed to halve the response being measured. A lower IC50 goes with inhibition by little substance. The molecule `COc1cc2c(c(OC)c1OC)-c1ccc(=O)c(OC)cc1[C@@H](NC(=O)C(F)(F)F)CC2` showed a 50% effective concentration (EC50) in assay [1] of 660 nM. The molecule also registered an IC50 in assay [2] of 660 nM.

As to `COc1cc2c(c(OC)c1O)-c1ccc(SC)c(=O)cc1[C@@H](NC(C)=O)CC2`, it took 47 nM to reach a half-maximal effect in assay [1] (EC50). For the same molecule, half-maximal inhibition in assay [2] (IC50) required 52 nM.

Take `COc1cc2c(c(OC)c1OC)-c1ccc(N(C)C)c(=O)cc1[C@@H](N)CC2`: in assay [1], it took 940 nM to reach a half-maximal effect (EC50). In assay [2], this molecule registered an IC50 of 1600 nM. As for `COc1cc(C(=O)N[C@H]2CCc3cc(OC)c(OC)c(OC)c3-c3ccc(OC(=O)c4cc(OC)c(OC)c(OC)c4)c(=O)cc32)cc(OC)c1OC`, a half-maximal effect in assay [1] (EC50) was put at 1400 nM. `COc1cc2c(c(OC)c1OC)-c1ccc(=O)c(OC)cc1[C@@H](N)CC2` returned an EC50 in assay [1] of 2800 nM. In addition, in assay [2], the IC50 stood at 2800 nM. `COc1cc2c(c(OC)c1OC)-c1ccc(OC)c(=O)cc1[C@@H](NC(=O)C(F)(F)F)CC2`: the EC50 in assay [1] was 8.8 nM. In addition, the concentration for half-maximal inhibition (IC50) in assay [2] is 6.6 nM. The matching figures for `CC(=O)N[C@H]1CCc2cc(O)c(O)c(O)c2-c2ccc(O)c(=O)cc21`: 1200 nM and 1200 nM. The corresponding values for `COc1cc2c(c(OC)c1O)-c1ccc(OC)c(=O)cc1[C@@H](NC(C)=O)CC2` [2-DESMETHYLCOLCHICIN] are 260 nM and 260 nM. The matching figures for `COc1cc(C(=O)N[C@H]2CCc3cc(OC)c(OC)c(OC)c3-c3ccc(OC)c(=O)cc32)cc(OC)c1OC`: 20 nM and 40 nM. In assay [1], `COc1cc2c(c(OC)c1O)-c1ccc(SC)c(=O)cc1[C@@H](N)CC2` returned an EC50 of 1100 nM. In assay [2], this molecule came in with an IC50 of 1400 nM.

In assay [1], `COc1cc2c(c(OC)c1OC)-c1ccc(OC)c(=O)cc1[C@@H](NC(=O)/C=C/c1ccc(O)c(O)c1)CC2` registered a half-maximal effective concentration (EC50) of 290 nM. The molecule further yielded a concentration for half-maximal inhibition (IC50) in assay [2] of 290 nM. As to `N[C@H]1CCc2cc(O)c(O)c(O)c2-c2ccc(=O)c(O)cc21`, the concentration for a half-maximal effect (EC50) in assay [1] turned out to be 30000 nM. The midpoint of inhibition in assay [2], the IC50, lay at 50000 nM. `COc1cc2c(c(OC)c1OC)-c1ccc(N(C)C)c(=O)cc1[C@@H](NC(C)=O)CC2` gave an EC50 in assay [1] of 85 nM. For the same molecule, the concentration for half-maximal inhibition (IC50) in assay [2] came to 85 nM. `COc1cc2c(c(OC)c1OC)-c1ccc(=O)c(N(C)C)cc1[C@@H](N)CC2` displayed an EC50 in assay [1] greater than 2700 nM. This molecule also had a 50% inhibitory concentration (IC50) in assay [2] greater than 2700 nM. The molecule `O=C(N[C@H]1CCc2cc(O)c(O)c(O)c2-c2ccc(=O)c(O)cc21)C(F)(F)F` yielded an EC50 in assay [1] of 23000 nM. The molecule also came in with a half-maximal inhibitory concentration (IC50) in assay [2] of 23000 nM. In assay [1], `COc1cc2c(c(OC)c1O)-c1ccc(O)c(=O)cc1[C@@H](NC(C)=O)CC2` registered a concentration for a half-maximal effect (EC50) of 270 nM. The same molecule yielded an IC50 in assay [2] of 270 nM.

In the case of `COc1cc2c(c(OC)c1OC)-c1ccc(O)c(=O)cc1[C@@H](N)CC2`, it took 1300 nM to reach a half-maximal effect in assay [1] (EC50). This molecule also showed a 50% inhibitory concentration (IC50) in assay [2] of 1200 nM.

For the molecule `COc1cc2c(c(OC)c1OC)-c1ccc(O)c(=O)cc1[C@@H](NC(=O)C(F)(F)F)CC2`, the EC50 in assay [1] amounted to 570 nM. Besides, the half-maximal inhibitory concentration (IC50) in assay [2] amounted to 200 nM. The matching figures for `COc1cc2c(c(OC)c1OC)-c1ccc(OC)c(=O)cc1[C@@H](NC(C)=O)CC2` [COLCHICINE]: 10 nM and 18 nM. In assay [1], `COc1cc(/C=C/C(=O)N[C@H]2CCc3cc(OC)c(OC)c(OC)c3-c3ccc(OC)c(=O)cc32)cc(OC)c1O` returned an EC50 of 180 nM. Besides, 180 nM corresponded to half-maximal inhibition in assay [2] (IC50). In turn, `COc1cc(/C=C/C(=O)N[C@H]2CCc3cc(OC)c(OC)c(OC)c3-c3ccc(OC)c(=O)cc32)cc(OC)c1OC` yielded a concentration giving a half-maximal response (EC50) in assay [1] of 5.5 nM. This molecule also registered a half-maximal inhibitory concentration (IC50) in assay [2] of 5.5 nM.
